Data taken from article PMC7914897, “Cytotoxic Potential of a-Azepano- and 3-Amino-3,4-SeCo-Triterpenoids” (International Journal of Molecular Sciences, 2021).
Where two headings read alike, the source gives them in different places.

Assays:
OVCAR-3 (Ovarian cancer) = assay: cells; conditions: Homo sapiens
Colon Cancer subpanel = assay: NCI-60 screen, subpanel; conditions: Homo sapiens
CNS cancer subpanel = assay: NCI-60 screen, subpanel; conditions: Homo sapiens
Ovarian Cancer subpanel = assay: NCI-60 screen, subpanel; conditions: Homo sapiens
Renal Cancer subpanel = assay: NCI-60 screen, subpanel; conditions: Homo sapiens
CCRF-CEM (Leukemia) = assay: NCI-60 screen (SRB, 48 h); conditions: Homo sapiens
MOLT-4 (Leukemia) = assay: NCI-60 screen (SRB, 48 h); conditions: Homo sapiens
EKVX (NSC lung cancer) = assay: NCI-60 screen (SRB, 48 h); conditions: Homo sapiens
HOP-62 (NSC lung cancer) = assay: NCI-60 screen (SRB, 48 h); conditions: Homo sapiens
HOP-92 (NSC lung cancer) = assay: NCI-60 screen (SRB, 48 h); conditions: Homo sapiens
[1] = system: NCI-H226 (NSC lung cancer); assay: NCI-60 screen (SRB, 48 h); conditions: Homo sapiens
[2] = system: NCI-H322M (NSC lung cancer); assay: NCI-60 screen (SRB, 48 h); conditions: Homo sapiens
COLO 205 (Colon cancer) = assay: NCI-60 screen (SRB, 48 h); conditions: Homo sapiens
HT29 (Colon cancer) = assay: NCI-60 screen (SRB, 48 h); conditions: Homo sapiens
SW-620 (Colon cancer) = assay: NCI-60 screen (SRB, 48 h); conditions: Homo sapiens
SF-295 (CNS cancer) = assay: NCI-60 screen (SRB, 48 h); conditions: Homo sapiens
SNB-75 (CNS cancer) = assay: NCI-60 screen (SRB, 48 h); conditions: Homo sapiens
M14 (Melanoma) = assay: NCI-60 screen (SRB, 48 h); conditions: Homo sapiens
SK-MEL-28 (Melanoma) = assay: NCI-60 screen (SRB, 48 h); conditions: Homo sapiens
OVCAR-5 (Ovarian cancer) = assay: NCI-60 screen (SRB, 48 h); conditions: Homo sapiens
SK-OV-3 (Ovarian cancer) = assay: NCI-60 screen (SRB, 48 h); conditions: Homo sapiens
A498 (Renal cancer) = assay: NCI-60 screen (SRB, 48 h); conditions: Homo sapiens
CAKI-1 (Renal cancer) = assay: NCI-60 screen (SRB, 48 h); conditions: Homo sapiens
UO-31 (Renal cancer) = assay: NCI-60 screen (SRB, 48 h); conditions: Homo sapiens
DU-145 (Prostate cancer) = assay: NCI-60 screen (SRB, 48 h); conditions: Homo sapiens
T-47D (Breast cancer) = assay: NCI-60 screen (SRB, 48 h); conditions: Homo sapiens, T47D
[3] = system: panel of approximately 60 cancer cell lines; assay: NCI-60 screen (SRB, 48 h), full panel

## C=C(C)[C@@H]1CC[C@]2(C)[C@H](CC=C3[C@@H]4[C@@H](C)[C@H](C)CC[C@]4(CO)CC[C@]32C)[C@@]1(C)CCCN [Compound 19]
OVCAR-3 (Ovarian cancer); OVCAR-3
  GI50: 0.93 µM
OVCAR-3 (Ovarian cancer); OVCAR-3, 48 h, read-out: TGI
  IC (TGI): 1.79 µM
OVCAR-3 (Ovarian cancer); OVCAR-3, read-out: LC50
  CC50: 3.44 µM
Colon Cancer subpanel; 48 h, read-out: TGI MG_MID
  IC (TGI): 1.8 µM
Colon Cancer subpanel; read-out: GI50 MG_MID
  GI50: 0.9 µM
Colon Cancer subpanel; read-out: LC50 MG_MID
  CC50: 3.63 µM
CNS cancer subpanel; 48 h, read-out: TGI MG_MID
  IC (TGI): 3.26 µM
CNS cancer subpanel; read-out: GI50 MG_MID
  GI50: 1.15 µM
CNS cancer subpanel; read-out: LC50 MG_MID
  CC50: 12.6 µM
Ovarian Cancer subpanel; 48 h, read-out: TGI MG_MID
  IC (TGI): 4.2 µM
Ovarian Cancer subpanel; read-out: GI50 MG_MID
  GI50: 1.57 µM
Ovarian Cancer subpanel; read-out: LC50 MG_MID
  CC50: 19.7 µM
Renal Cancer subpanel; 48 h, read-out: TGI MG_MID
  IC (TGI): 4.63 µM
Renal Cancer subpanel; read-out: GI50 MG_MID
  GI50: 1.56 µM
Renal Cancer subpanel; read-out: LC50 MG_MID
  CC50: 13.3 µM
CCRF-CEM (Leukemia)
  GI50: 1.31 µM
CCRF-CEM (Leukemia); 48 h, read-out: TGI
  IC (TGI): 5.26 µM
CCRF-CEM (Leukemia); read-out: LC50
  CC50: > 50 µM
MOLT-4 (Leukemia); MOLT-4
  GI50: 1.35 µM
MOLT-4 (Leukemia); MOLT-4, 48 h, read-out: TGI
  IC (TGI): 4.07 µM
MOLT-4 (Leukemia); MOLT-4, read-out: LC50
  CC50: 27.9 µM
EKVX (NSC lung cancer)
  GI50: 1.08 µM
EKVX (NSC lung cancer); 48 h, read-out: TGI
  IC (TGI): 2.94 µM
EKVX (NSC lung cancer); read-out: LC50
  CC50: 26.5 µM
HOP-62 (NSC lung cancer); HOP-62
  GI50: 1.08 µM
HOP-62 (NSC lung cancer); HOP-62, 48 h, read-out: TGI
  IC (TGI): 2.36 µM
HOP-62 (NSC lung cancer); HOP-62, read-out: LC50
  CC50: > 50 µM
HOP-92 (NSC lung cancer); HOP-92
  GI50: 1.04 µM
HOP-92 (NSC lung cancer); HOP-92, 48 h, read-out: TGI
  IC (TGI): 3.46 µM
HOP-92 (NSC lung cancer); HOP-92, read-out: LC50
  CC50: 23.1 µM
[1]; NCI-H226
  GI50: 6.72 µM
[1]; NCI-H226, 48 h, read-out: TGI
  IC (TGI): 18.3 µM
[1]; NCI-H226, read-out: LC50
  CC50: 49.9 µM
[2]
  GI50: 1.74 µM
[2]; 48 h, read-out: TGI
  IC (TGI): 6.38 µM
[2]; read-out: LC50
  CC50: 18.6 µM
COLO 205 (Colon cancer); COLO 205
  GI50: 0.9 µM
COLO 205 (Colon cancer); COLO 205, 48 h, read-out: TGI
  IC (TGI): 1.94 µM
COLO 205 (Colon cancer); COLO 205, read-out: LC50
  CC50: 4.17 µM
HT29 (Colon cancer); HT-29
  GI50: 0.99 µM
HT29 (Colon cancer); HT-29, 48 h, read-out: TGI
  IC (TGI): 2.04 µM
HT29 (Colon cancer); HT-29, read-out: LC50
  CC50: 4.22 µM
SW-620 (Colon cancer); SW-620
  GI50: 1.01 µM
SW-620 (Colon cancer); SW-620, 48 h, read-out: TGI
  IC (TGI): 2.11 µM
SW-620 (Colon cancer); SW-620, read-out: LC50
  CC50: 4.39 µM
SF-295 (CNS cancer); SF-295
  GI50: 0.85 µM
SF-295 (CNS cancer); SF-295, 48 h, read-out: TGI
  IC (TGI): 1.58 µM
SF-295 (CNS cancer); SF-295, read-out: LC50
  CC50: 2.94 µM
SNB-75 (CNS cancer); SNB-75
  GI50: 0.85 µM
SNB-75 (CNS cancer); SNB-75, 48 h, read-out: TGI
  IC (TGI): 3.62 µM
SNB-75 (CNS cancer); SNB-75, read-out: LC50
  CC50: 17.1 µM
M14 (Melanoma); M14
  GI50: 0.85 µM
M14 (Melanoma); M14, 48 h, read-out: TGI
  IC (TGI): 1.76 µM
M14 (Melanoma); M14, read-out: LC50
  CC50: 3.64 µM
SK-MEL-28 (Melanoma); SK-MEL-28
  GI50: 0.95 µM
SK-MEL-28 (Melanoma); SK-MEL-28, 48 h, read-out: TGI
  IC (TGI): 1.67 µM
SK-MEL-28 (Melanoma); SK-MEL-28, read-out: LC50
  CC50: 2.94 µM
OVCAR-5 (Ovarian cancer); OVCAR-5
  GI50: 1.76 µM
OVCAR-5 (Ovarian cancer); OVCAR-5, 48 h, read-out: TGI
  IC (TGI): 6.15 µM
OVCAR-5 (Ovarian cancer); OVCAR-5, read-out: LC50
  CC50: 20.9 µM
SK-OV-3 (Ovarian cancer); SK-OV-3
  GI50: 4.42 µM
SK-OV-3 (Ovarian cancer); SK-OV-3, 48 h, read-out: TGI
  IC (TGI): 12 µM
SK-OV-3 (Ovarian cancer); SK-OV-3, read-out: LC50
  CC50: 30.5 µM
A498 (Renal cancer); A498
  GI50: 3.83 µM
A498 (Renal cancer); A498, 48 h, read-out: TGI
  IC (TGI): 11.2 µM
A498 (Renal cancer); A498, read-out: LC50
  CC50: 27.7 µM
CAKI-1 (Renal cancer); CAKI-1
  GI50: 1.69 µM
CAKI-1 (Renal cancer); CAKI-1, 48 h, read-out: TGI
  IC (TGI): 5.58 µM
CAKI-1 (Renal cancer); CAKI-1, read-out: LC50
  CC50: 17.9 µM
UO-31 (Renal cancer); UO-31
  GI50: 0.82 µM
UO-31 (Renal cancer); UO-31, 48 h, read-out: TGI
  IC (TGI): 2.24 µM
UO-31 (Renal cancer); UO-31, read-out: LC50
  CC50: 9.64 µM
DU-145 (Prostate cancer); DU-145
  GI50: 1.21 µM
DU-145 (Prostate cancer); DU-145, 48 h, read-out: TGI
  IC (TGI): 3.01 µM
DU-145 (Prostate cancer); DU-145, read-out: LC50
  CC50: 11.3 µM
T-47D (Breast cancer)
  GI50: 1.51 µM
T-47D (Breast cancer); 48 h, read-out: TGI
  IC (TGI): 5.15 µM
T-47D (Breast cancer); read-out: LC50
  CC50: > 50 µM
[3]; 1 dose 10 µM
  Positive Cytostatic Effect (cell lines with percent growth 0 to 50 / total): 20/60
  Positive Cytotoxic Effect (cell lines with percent growth < 0 / total): 28/60
  number of cancer cell lines the compound was active against: 45 cell lines
[3]; Homo sapiens, 48 h, read-out: Mean Growth, %
  activity at 10 µM: -4.29%
[3]; Homo sapiens, 48 h, read-out: Range of Growth, %
  activity at 10 µM: -99 to 84.5%
[3]; Homo sapiens, 48 h, read-out: TGI MG_MID60, average over all cell lines
  IC (TGI): 3.89 µM
[3]; Homo sapiens, read-out: GI50 MG_MID60
  GI50: 1.42 µM
[3]; Homo sapiens, read-out: GI50 against all human tumor cell lines
  GI50: < 10 µM
[3]; Homo sapiens, read-out: GI50 against the most sensitive cell lines
  GI50: 0.2 to 0.94 µM
[3]; Homo sapiens, read-out: LC50 MG_MID60, average over all cell lines
  CC50: 17 µM
